Results reported in US20250326794A1, “ANTI-CANCER LEUCINE-RICH PEPTIDES AND USES THEREOF” (KING'S COLLEGE LONDON, priority 2019, published 2025).

Columns and labels:
[1] = Tryptophan fluorescent binding assay, 3POPC/1POPG vesicles; conditions: 50 μM peptide, PBS pH 7.4, lipid per peptide
How it was run: (§1)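 Peptide fixed at 50 μM, titrated with POPC or 3POPC/1POPG large unilamellar vesicles (100 nm extruded; 0-5000 μM lipid) in PBS pH 7.4. Tryptophan fluorescence (ex 280, em 300-450 nm) read after 60 min; lipid concentration giving 50% binding reported as lipid/peptide ratio.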

[2] = ANTS/DPX liposome leakage assay, POPC vesicles; type: biochemical; conditions: 0.5 mM vesicles; for Peptide Concentration-induced 50% ANTS/DPX leakage at pH 4.8, POPC Vesicle: pH 4.8, lipid per peptide; for Peptide Concentration-induced 50% ANTS/DPX leakage at pH 7.4, POPC Vesicle: pH 7.4, lipid per peptide
How it was run: (§2)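 LUVs (100 nm extruded) of POPC or POPC:POPG 3:1, loaded with 5 mM ANTS/12.5 mM DPX, used at 0.5 mM lipid with peptide 0–20 μM in PBS pH 7.4 or HCl-adjusted PBS pH 4.8. Leakage read after 3 h (ex 350/em 510 nm) against 10% Triton maximum; 50% leakage expressed as lipid per peptide.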

[3] = system: U2OS (human bone osteosarcoma); conditions: 72 h
How it was run: (§3)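 MTT viability after 72 h exposure to 0–100 μM compound (final DMSO 0.5% or 0%), 5×10^3 cells/well; HMLER lines and MCF-10A in MEGM, U2OS in DMEM with 10% FBS. A550 normalized to matching vehicle controls; IC50 interpolated from dose–response curves.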

[4] = ANTS/DPX liposome leakage assay, 3POPC/1POPG vesicles; type: biochemical; conditions: 0.5 mM vesicles; for Peptide Concentration-induced 50% ANTS/DPX leakage at pH 4.8, 3POPC/1POPG Vesicle: pH 4.8, lipid per peptide; for Peptide Concentration-induced 50% ANTS/DPX leakage at pH 7.4, 3POPC/1POPG Vesicle: pH 7.4, lipid per peptide
How it was run: as §2

[5] = Tryptophan fluorescent binding assay, POPC vesicles; conditions: 50 μM peptide, PBS pH 7.4, lipid per peptide
How it was run: as §1

[6] = system: HMLER (human breast cancer bulk cell); experiment: cells; conditions: 72 h
How it was run: as §3

[7] = system: HEK293T (human embryonic kidney cell); experiment: cells; conditions: 72 h
[8] = system: HMLER-shEcad (human breast cancer stem cell); experiment: cells; conditions: 72 h
How it was run: as §3

Row | Structure (SMILES) | Lipid Concentration-induced 50% Peptide Binding, 3POPC/1POPG Vesicle [1] | Peptide Concentration-induced 50% ANTS/DPX leakage at pH 4.8, POPC Vesicle [2] | Peptide Concentration-induced 50% ANTS/DPX leakage at pH 7.4, POPC Vesicle [2] | IC50 [3] | Peptide Concentration-induced 50% ANTS/DPX leakage at pH 4.8, 3POPC/1POPG Vesicle [4] | Peptide Concentration-induced 50% ANTS/DPX leakage at pH 7.4, 3POPC/1POPG Vesicle [4] | Lipid Concentration-induced 50% Peptide Binding, POPC Vesicle [5] | IC50 [6] | IC50 [7] | IC50 [8]
1 | CC(C)C[C@H](NC(=O)CN)C(=O)N[C@@H](CC(C)C)C(=O)N[C@@H](CCC(=O)O)C(=O)N[C@@H](CC(C)C)C(=O)N[C@@H](CC(C)C)C(=O)N[C@@H](Cc1c[nH]cn1)C(=O)N[C@@H](CC(C)C)C(=O)N[C@@H](CC(C)C)C(=O)N[C@@H](CC(C)C)C(=O)N[C@@H](CCCCN)C(=O)N[C@@H](C)C(=O)N[C@@H](C)C(=O)NCC(=O)N[C@@H](Cc1c[nH]c2ccccc12)C(N)=O [EHK] | 0.42 L/P | 55 L/P | 981 L/P | 25 µM | 117 L/P | 505 L/P | 0.56 L/P | 1.35 ± 0.35 µM | 5.35 ± 0.07 µM | 0.71 ± 0.13 µM
2 | CC(C)C[C@H](NC(=O)CN)C(=O)N[C@@H](CC(C)C)C(=O)N[C@@H](CCCCN)C(=O)N[C@@H](CC(C)C)C(=O)N[C@@H](CC(C)C)C(=O)N[C@@H](Cc1c[nH]cn1)C(=O)N[C@@H](CC(C)C)C(=O)N[C@@H](CC(C)C)C(=O)N[C@@H](CC(C)C)C(=O)N[C@@H](CCCCN)C(=O)N[C@@H](C)C(=O)N[C@@H](C)C(=O)NCC(=O)N[C@@H](Cc1c[nH]c2ccccc12)C(N)=O [KHK] | 0.38 L/P | 140 L/P | 1153 L/P | 12.9 ± 1.24 µM | 53 L/P | 193 L/P | 0.17 L/P | 2.59 ± 0.92 µM | 3.55 ± 0.78 µM | 1.4 ± 0.14 µM
3 | CC(C)C[C@H](NC(=O)CN)C(=O)N[C@@H](CC(C)C)C(=O)N[C@@H](CC(=O)O)C(=O)N[C@@H](CC(C)C)C(=O)N[C@@H](CC(C)C)C(=O)N[C@@H](CCCCN)C(=O)N[C@@H](CC(C)C)C(=O)N[C@@H](CC(C)C)C(=O)N[C@@H](CC(C)C)C(=O)N[C@@H](CCCCN)C(=O)N[C@@H](C)C(=O)N[C@@H](C)C(=O)NCC(=O)N[C@@H](Cc1c[nH]c2ccccc12)C(N)=O [DKK] | 6.88 L/P | 47 L/P | 463 L/P | 10.4 ± 1.7 µM | 227 L/P | 156 L/P | 2.75 L/P | 1.95 ± 0.35 µM | 3.4 ± 0.28 µM | 1.2 ± 0.14 µM
4 | CC(C)C[C@H](NC(=O)CN)C(=O)N[C@@H](CC(C)C)C(=O)N[C@@H](CCCCN)C(=O)N[C@@H](CC(C)C)C(=O)N[C@@H](CC(C)C)C(=O)N[C@@H](Cc1c[nH]cn1)C(=O)N[C@@H](CC(C)C)C(=O)N[C@@H](CC(C)C)C(=O)N[C@@H](CC(C)C)C(=O)N[C@@H](Cc1c[nH]cn1)C(=O)N[C@@H](C)C(=O)N[C@@H](C)C(=O)NCC(=O)N[C@@H](Cc1c[nH]c2ccccc12)C(N)=O [KHH] | 0.94 L/P | 227 L/P | 1153 L/P | 39.8 ± 5.3 µM | 48 L/P | 329 L/P | 3.50 L/P | 5.2 ± 0.71 µM | 7.75 ± 0.78 µM | 4.45 ± 0.49 µM
5 | CC(C)C[C@H](NC(=O)CN)C(=O)N[C@@H](CC(C)C)C(=O)N[C@@H](CCCCN)C(=O)N[C@@H](CC(C)C)C(=O)N[C@@H](CC(C)C)C(=O)N[C@@H](CCCCN)C(=O)N[C@@H](CC(C)C)C(=O)N[C@@H](CC(C)C)C(=O)N[C@@H](CC(C)C)C(=O)N[C@@H](CCCCN)C(=O)N[C@@H](C)C(=O)N[C@@H](C)C(=O)NCC(=O)N[C@@H](Cc1c[nH]c2ccccc12)C(N)=O [KKK] | 1.70 L/P | 156 L/P | 1369 L/P | 9.65 ± 1.2 µM | 81 L/P | 115 L/P | 1.25 L/P | 1.57 ± 0.24 µM | 3.7 ± 0.14 µM | 1.35 ± 0.4 µM
6 | CC(C)C[C@H](NC(=O)CN)C(=O)N[C@@H](CC(C)C)C(=O)N[C@@H](Cc1c[nH]cn1)C(=O)N[C@@H](CC(C)C)C(=O)N[C@@H](CC(C)C)C(=O)N[C@@H](Cc1c[nH]cn1)C(=O)N[C@@H](CC(C)C)C(=O)N[C@@H](CC(C)C)C(=O)N[C@@H](CC(C)C)C(=O)N[C@@H](CCCCN)C(=O)N[C@@H](C)C(=O)N[C@@H](C)C(=O)NCC(=O)N[C@@H](Cc1c[nH]c2ccccc12)C(N)=O [HHK] | 0.20 L/P | 149 L/P | 1133 L/P | 12.7 ± 1.91 µM | 111 L/P | 160 L/P | 0.68 L/P | 3.15 ± 0.07 µM | 5.25 ± 1.48 µM | 1.75 ± 0.21 µM
7 | CC(C)C[C@H](NC(=O)CN)C(=O)N[C@@H](CC(C)C)C(=O)N[C@@H](CC(=O)O)C(=O)N[C@@H](CC(C)C)C(=O)N[C@@H](CC(C)C)C(=O)N[C@@H](Cc1c[nH]cn1)C(=O)N[C@@H](CC(C)C)C(=O)N[C@@H](CC(C)C)C(=O)N[C@@H](CC(C)C)C(=O)N[C@@H](CCC(=O)O)C(=O)N[C@@H](C)C(=O)N[C@@H](C)C(=O)NCC(=O)N[C@@H](Cc1c[nH]c2ccccc12)C(N)=O [DHE] | 0.72 L/P | 58 L/P | 566 L/P | 17.2 ± 1.06 µM | 469 L/P | 581 L/P | 1.00 L/P | 3.75 ± 0.92 µM | 11.1 ± 1.91 µM | 2.8 ± 0.14 µM
8 | CC(C)C[C@H](NC(=O)CN)C(=O)N[C@@H](CC(C)C)C(=O)N[C@@H](CC(=O)O)C(=O)N[C@@H](CC(C)C)C(=O)N[C@@H](CC(C)C)C(=O)N[C@@H](CCC(=O)O)C(=O)N[C@@H](CC(C)C)C(=O)N[C@@H](CC(C)C)C(=O)N[C@@H](CC(C)C)C(=O)N[C@@H](Cc1c[nH]cn1)C(=O)N[C@@H](C)C(=O)N[C@@H](C)C(=O)NCC(=O)N[C@@H](Cc1c[nH]c2ccccc12)C(N)=O [DEH] | 1.50 L/P | 63 L/P | 620 L/P | 36.5 ± 3.92 µM | 193 L/P | 548 L/P | 0.75 L/P | 5.35 ± 1.91 µM | 10.5 ± 4.67 µM | 3.6 ± 0.42 µM
